{
  "source": "patent US8822699B2",
  "about": "“Heterocyclic compound and use thereof” (Takeda Pharmaceutical Company Limited, priority 2010, dated 2014)",
  "data": [
    {"tested_on": "Aβ42 production in primary nerve cells", "assay": "Measurement of amyloid β production inhibition rate using primary nerve cell (Aβ42 sandwich ELISA)", "assay_type": "cell-based", "conditions": "Rattus norvegicus, 72 h, primary nerve cells from cerebral cortex of SD rat fetus; cultured 3 days with compound; culture supernatant, sandwich ELISA for Aβ42; read-out: Aβ42 production inhibitory activity IC50", "experimental": "(§1) Measurement of Amyloid β Production Inhibition Rate Using Primary Nerve Cell\n(§2) The primary nerve cells were collected from the cerebral cortex of rat fetus (CLEA Japan, Inc.: SD rat, fetal life 17 days of age), and suspended in a neurobasal medium containing B27 supplement, L-glutamine, penicillin-streptomycin (manufactured by Invitrogen) at 500,000 cells/mL. Then, the suspension was seeded in poly L-lysine-coated 96 well plate (manufactured by SUMITOMO BAKELITE) by 100 μL, and cultured at 37° C., 5% CO2 for 7 days. The medium was completely removed, and a new neurobasal medium was added at 75 μL/well. Thereto was added (75 μL/well) a neurobasal medium supplemented with a 2-fold measurement concentration of an evaluation target compound, and the mixture was cultured for 3 days. The culture supernatant was collected from each well, diluted as appropriate, applied to sandwich ELISA between BNT77 antibody-BA27 antibody (for Aβ40) and sandwich ELISA between BNT77 antibody-3005 antibody (for Aβ42), and the amounts of Aβ40 and Aβ42 were measured.\n(§3) The amyloid β production inhibition rate (%) of the compound was calculated by the following formula. (1−(amyloid β production amount with addition of compound)/(amyloid β production amount without addition of compound))×100\n(§4) The amyloid β production 50% inhibitory rate (IC50 value) was calculated using the statistical analysis software (SAS Preclinical Package) as the concentration of the compound showing 50% inhibition when the amyloid β production amount without addition of the compound is 100%. In addition, a new neurobasal medium was added (75 μL/well) to the cells after collection of the culture supernatant, and the cells were left standing for about 30 min to reach room temperature. Cell-Titer Glo Luminescent Cell Viability Assay (manufactured by Promega) was added at 75 μL/well, and the plate was shaken for 2 min and reacted for about 10 min.", "units": {"IC50": "nM"}, "values": [
      {"compound": "COc1cc(-c2nnc3n2CCCC3(c2ccc(F)c(F)c2)C(C)(C)O)ccc1-c1cnc(C)o1", "note": "(centres unmarked) [Example 32, 2-{8-(3,4-difluorophenyl)-3-[3-methoxy-4-(2-methyl-1,3-oxazol-5-yl)phenyl]-5,6,7,8-tetrahydro[1,2,4]triazolo[4,3-a]pyridin-8-yl}propan-2-ol]", "IC50": 143},
      {"compound": "COc1cc(-c2nnc3n2CCCC3(Cc2ccc(F)c(F)c2)C(=O)N(C)CC(F)(F)F)ccc1-c1cnc(C)o1", "note": "(centres unmarked) [Example 60, 8-(3,4-difluorobenzyl)-3-[3-methoxy-4-(2-methyl-1,3-oxazol-5-yl)phenyl]-N-methyl-N-(2,2,2-trifluoroethyl)-5,6,7,8-tetrahydro[1,2,4]triazolo[4,3-a]pyridine-8-carboxamide]", "IC50": 50},
      {"compound": "COc1cc(-c2nnc3n2CCCC3(Oc2ccc(Cl)c(F)c2)C(C)(C)O)ccc1-c1cnc(C)o1", "note": "(centres unmarked) [Example 70, 2-{8-(4-chloro-3-fluorophenoxy)-3-[3-methoxy-4-(2-methyl-1,3-oxazol-5-yl)phenyl]-5,6,7,8-tetrahydro[1,2,4]triazolo[4,3-a]pyridin-8-yl}propan-2-ol]", "IC50": 10},
      {"compound": "COc1cc(-c2nnc3n2CCCC3(CC2CC2)c2ccc(Cl)c(C(F)(F)F)c2)ccc1-n1cnc(C)c1", "note": "(centres unmarked) [Example 78, 8-[4-chloro-3-(trifluoromethyl)phenyl]-8-(cyclopropylmethyl)-3-[3-methoxy-4-(4-methyl-1H-imidazol-1-yl)phenyl]-5,6,7,8-tetrahydro[1,2,4]triazolo-[4,3-a]pyridine]", "IC50": 55},
      {"compound": "COc1cc(-c2nnn3c2CCCC3(C)c2ccc(Cl)c(Cl)c2)ccc1-n1cnc(C)n1", "note": "(centres unmarked) [Example 91, 7-(3,4-dichlorophenyl)-3-[3-methoxy-4-(3-methyl-1H-1,2,4-triazol-1-yl)phenyl]-7-methyl-4,5,6,7-tetrahydro[1,2,3]triazolo[1,5-a]pyridine]", "IC50": 148},
      {"compound": "COc1cc(-c2nnc3n2CCCC3(Oc2ccc(C(F)(F)F)cn2)C(C)(C)O)ccc1-c1cnc(C)o1", "note": "(centres unmarked) [Example 95, 2-(3-[3-methoxy-4-(2-methyl-1,3-oxazol-5-yl)phenyl]-8-{[5-(trifluoromethyl)pyridin-2-yl]oxy}-5,6,7,8-tetrahydro[1,2,4]triazolo-[4,3-a]pyridin-8-yl)propan-2-ol]", "IC50": 34},
      {"compound": "COc1cc(-c2nnc3n2CCCC3(OCc2ccc(F)c(F)c2)C(=O)N(C)CC(F)(F)F)ccc1-c1cnc(C)o1", "note": "(centres unmarked) [Example 108, 8-[(3,4-difluorobenzyl)oxy]-3-[3-methoxy-4-(2-methyl-1,3-oxazol-5-yl)phenyl]-N-methyl-N-(2,2,2-trifluoroethyl)-5,6,7,8-tetrahydro[1,2,4]triazolo[4,3-a]pyridine-8-carboxamide]", "IC50": 67},
      {"compound": "COc1nc(-c2nnc3n2CCCC3(Oc2ccc(F)c(F)c2)C(C)(C)O)ccc1-n1cnc(C)c1", "note": "(centres unmarked) [Example 135, 2-{8-(3,4-difluorophenoxy)-3-[6-methoxy-5-(4-methyl-1H-imidazol-1-yl)pyridin-2-yl]-5,6,7,8-tetrahydro[1,2,4]triazolo[4,3-a]pyridin-8-yl}propan-2-ol]", "IC50": 123},
      {"compound": "COc1cc(-c2nnc3n2CCCC3(Sc2ccc(F)c(F)c2)C(C)(C)O)ccc1-c1cnc(C)o1", "note": "(centres unmarked) [Example 140, 2-{8-[(3,4-difluorophenyl)sulfanyl]-3-[3-methoxy-4-(2-methyl-1,3-oxazol-5-yl)phenyl]-5,6,7,8-tetrahydro[1,2,4]triazolo[4,3-a]pyridin-8-yl}propan-2-ol]", "IC50": 41},
      {"compound": "COc1cc(-c2nnc3n2CC(C)CC3(Oc2ccc(F)c(F)c2)C(C)(C)O)ccc1-c1cnc(C)o1", "note": "(stereo not drawn) [Example 150, (6RS,8RS or 6RS,8SR)-2-{8-(3,4-difluorophenoxy)-3-[3-methoxy-4-(2-methyl-1,3-oxazol-5-yl)phenyl]-6-methyl-5,6,7,8-tetrahydro[1,2,4]triazolo[4,3-a]pyridin-8-yl}propan-2-ol]", "IC50": 118},
      {"compound": "COc1cc(-c2nnc3n2CCCC3(Oc2cc(F)c(F)c(F)c2)C(=O)N(C)CC(F)(F)F)ccc1-c1cnc(C)o1", "note": "(centres unmarked) [Example 160, 3-[3-methoxy-4-(2-methyl-1,3-oxazol-5-yl)phenyl]-N-methyl-N-(2,2,2-trifluoro-ethyl)-8-(3,4,5-trifluorophenoxy)-5,6,7,8-tetrahydro-[1,2,4]triazolo[4,3-a]pyridine-8-carboxamide]", "IC50": 19},
      {"compound": "COc1cc(-c2nnc3n2CCCC3(Oc2cc(F)c(F)c(F)c2)C(C)(C)O)ccc1-n1cnc(Cl)c1", "note": "(centres unmarked) [Example 165, 2-{3-[4-(4-chloro-1H-imidazol-1-yl)-3-methoxyphenyl]-8-(3,4,5-trifluorophenoxy)-5,6,7,8-tetrahydro[1,2,4]triazolo[4,3-a]pyridin-8-yl}propan-2-ol]", "IC50": 143},
      {"compound": "Cc1ncc(-c2ccc(-c3nnc4n3CCCC4(Oc3cc(F)c(F)c(F)c3)C(C)(C)O)cc2F)o1", "note": "(centres unmarked) [Example 166, 2-{3-[3-fluoro-4-(2-methyl-1,3-oxazol-5-yl)phenyl]-8-(3,4,5-trifluorophenoxy)-5,6,7,8-tetrahydro[1,2,4]triazolo[4,3-a]pyridin-8-yl}propan-2-ol]", "IC50": 360},
      {"compound": "Cc1ncc(-c2ccc(-c3nnc4n3CCCC4(Oc3ccc(F)c(F)c3)C(C)(C)O)cc2O)o1", "note": "(centres unmarked) [Example 168, 5-[8-(3,4-difluorophenoxy)-8-(1-hydroxy-1-methylethyl)-5,6,7,8-tetrahydro[1,2,4]triazolo[4,3-a]pyridin-3-yl]-2-(2-methyl-1,3-oxazol-5-yl)phenol]", "IC50": 40},
      {"compound": "COc1cc(-c2nnc3n2CCCC3(Oc2cc(F)c(F)c(F)c2)C(C)(C)O)ccc1-c1ccnc(C)c1", "note": "(centres unmarked) [Example 174, 2-{3-[3-methoxy-4-(2-methylpyridin-4-yl)phenyl]-8-(3,4,5-trifluorophenoxy)-5,6,7,8-tetrahydro[1,2,4]triazolo[4,3-a]pyridin-8-yl}propan-2-ol]", "IC50": 44},
      {"compound": "Cc1ncc(-c2ccc(-c3nnc4n3CCCC4(Oc3ccc(F)c(F)c3)C(C)(C)O)cc2OCC(F)F)o1", "note": "(centres unmarked) [Example 175, 2-{3-[3-(2,2-difluoroethoxy)-4-(2-methyl-1,3-oxazol-5-yl)phenyl]-8-(3,4-difluorophenoxy)-5,6,7,8-tetrahydro[1,2,4]-triazolo[4,3-a]pyridin-8-yl}propan-2-ol]", "IC50": 103},
      {"compound": "Cc1ncc(-c2ccc(-c3nnc4n3CCCC4(Oc3cc(F)c(F)c(F)c3)C(C)(C)O)cc2)o1", "note": "(centres unmarked) [Example 178, 2-{3-[4-(2-methyl-1,3-oxazol-5-yl)phenyl]-8-(3,4,5-trifluorophenoxy)-5,6,7,8-tetrahydro[1,2,4]triazolo[4,3-a]pyridin-8-yl}propan-2-ol]", "IC50": 168}
    ]},
    {"tested_on": "Aβ42 production in primary nerve cells", "assay": "Measurement of amyloid β production inhibition rate using primary nerve cell (Aβ42 sandwich ELISA)", "assay_type": "cell-based", "conditions": "primary nerve cells from cerebral cortex of SD rat fetus; cultured 3 days with compound; culture supernatant, sandwich ELISA for Aβ42; read-out: Aβ42 production inhibitory activity IC50", "experimental": "as §1, §2, §3, §4", "units": {"IC50": "nM"}, "values": [
      {"compound": "COc1cc(-c2nnc3n2CCCC3(C)c2ccc(Cl)cc2)ccc1-c1cnc(C)o1", "note": "(single isomer, unassigned) [Example 3, 8-(4-chlorophenyl)-3-[3-methoxy-4-(2-methyl-1,3-oxazol-5-yl)phenyl]-8-methyl-5,6,7,8-tetrahydro[1,2,4]triazolo[4,3-a]pyridine]", "IC50": 459},
      {"compound": "COc1cc(-c2nnc3n2CCCC3(C)c2ccc(Cl)cc2)ccc1-c1cnc(C)o1", "note": "(single isomer, unassigned) [Example 4, optically active 8-(4-chlorophenyl)-3-[3-methoxy-4-(2-methyl-1,3-oxazol-5-yl)phenyl]-8-methyl-5,6,7,8-tetrahydro[1,2,4]triazolo[4,3-a]pyridine]", "IC50": 32},
      {"compound": "COc1cc(-c2nnc3n2CCCC3(CC2CC2)c2ccc(F)c(F)c2)ccc1-c1cnc(C)o1", "note": "(centres unmarked) [Example 20, 8-(cyclopropylmethyl)-8-(3,4-difluorophenyl)-3-[3-methoxy-4-(2-methyl-1,3-oxazol-5-yl)phenyl]-5,6,7,8-tetrahydro[1,2,4]triazolo-[4,3-a]pyridine]", "IC50": 35},
      {"compound": "COc1cc(-c2nnc3n2CCCC3(Cc2ccc(F)c(F)c2)C(C)(C)O)ccc1-c1cnc(C)o1", "note": "(centres unmarked) [Example 49, 2-{8-(3,4-difluorobenzyl)-3-[3-methoxy-4-(2-methyl-1,3-oxazol-5-yl)phenyl]-5,6,7,8-tetrahydro[1,2,4]triazolo[4,3-a]pyridin-8-yl}propan-2-ol]", "IC50": 31},
      {"compound": "COc1cc(-c2nnc3n2CCCC3(Cc2ccc(F)c(F)c2)C(C)(C)O)ccc1-c1cnc(C)o1", "note": "(centres unmarked) [Example 50, optically active 2-{8-(3,4-difluorobenzyl)-3-[3-methoxy-4-(2-methyl-1,3-oxazol-5-yl)phenyl]-5,6,7,8-tetrahydro[1,2,4]triazolo[4,3-a]pyridin-8-yl}propan-2-ol]", "IC50": 14},
      {"compound": "COc1nc(-c2nnc3n2CCC[C@]3(Oc2cc(F)c(F)c(F)c2)C(C)(C)O)ccc1-n1cnc(C)c1", "note": "[Example 177, 2-{(8R)-3-[6-methoxy-5-(4-methyl-1H-imidazol-1-yl)pyridin-2-yl]-8-(3,4,5-trifluorophenoxy)-5,6,7,8-tetrahydro[1,2,4]triazolo[4,3-a]pyridin-8-yl}propan-2-ol monophosphate]", "IC50": 34}
    ]}
  ]
}
